Assay results: patent US5885990A, “Substituted amidinonaphthyl ester derivative” (Torii Pharmaceutical Co., Ltd., priority 1995, dated 1999)
Where a name gives a salt, the structure may show the parent alone.

Experiments:
[1] = tested on: pulmonary thrombosis of mouse models (thrombin-induced); test: Preventive effect on death due to pulmonary thrombosis of mouse models; type: in vivo; design: key: ratio of survival rate to positive control group's survival rate; conditions: ddy male mice, 10 mg/kg oral; thrombin 10 units/mouse via caudal vein after 6 hours; survival rate 16 hours after thrombin, as ratio to survival rate of positive control Sepimostat mesilate
Experimental: (1) Preventive effect on death due to pulmonary thrombosis of mouse models:
For experiment, ddy male mice after a fast of 6 hours were used and 10 mg/kg of the present compound was orally administered. […] After lapse of 6 hours, 10 units/mouse of thrombin was administered to the mice through caudal vein to cause thrombosis for the mice. After 16 hours from thrombin-induction, mortality was checked and the preventive effect on death (survival rate) was indicated by the ratio to the survival rate of the positive control group.

[2] = tested on: blood plasmin like activity; test: Determination of blood plasmin like activity using synthetic substrate (plasma after oral dosing); type: in vivo, rat; conditions: SD male rats, 100 mg/kg oral, substrate Boc-Val-Leu-Lys-MCA, pH 8.5, 37° C., 30 minutes, Water control 0.07
Experimental: (2) Test of determination of blood plasmin like activity using synthetic substrate:
For the test, SD male rats (8 weeks old) after fasted overnight were used, and 100 mg/kg of the present compound was orally administered to the rats, and blood was drawn, with time, from the descending aorta as citrate-containing blood and subjected to centrifugation to obtain plasma. Water was orally administered to the rats of control group and plasma was similarly obtained.
To the plasma obtained were added 0.1M borate buffer solution (pH 8.5) and Boc-Val-Leu-Lys-MCA and incubation was conducted at 37° C. for 30 minutes.

[3] = tested on: plasminogen activator inhibitor (PAI-1); test: Measurement of plasminogen activator inhibitor (PAI-1) antigen quantity in plasma; type: in vivo, rat; conditions: SD male rats, 100 mg/kg oral; plasma of Test (2); ELISA; Water control 54.2
Experimental: (3) Test of measurement of plasminogen activator inhibitor (PAI-1) antigen quantity:
Measurement of PAI-1 antigen quantity was conducted using the plasma obtained in the above Test (2).
Previously, 100 μl of a diluted 10 mM carbonate buffered solution of monoclonal antibody to PAI-1 was put in each well of a 96-well micro-titer plate and left to stand for 16 hours at 4° C., followed by washing, four times, with 10 mM phosphate buffer solution containing 0.1% Tween 20 and adding a standard solution and the plasma sample. After leaving for 2 hours at room temperature and washing again four times, 100 μl of an enzyme-labelled PAI-1 polyclonal antibody was added to carry out reaction at room temperature for 2 hours. After excess antibody was washed, 100 μl of citric acid buffer solution containing 10 mg of o-phenylenediamine and 0.1% hydrogen peroxide was added, followed by leaving it for 30 minutes at 30° C. to cause color formation. After the reaction was terminated by the addition of 50 μl of 2N sulfuric acid, absorbance at 405 nm was measured by a micro-plate reader to determine the PAI-1 antigen quantity in the plasma sample.

Row | Structure (SMILES) | Preventive effect on death [1] | Plasmin like activity [2] | PAI-1 antigen quantity [3]
1 | N=C(N)c1ccc2c(CC(N)=O)c(OC(=O)c3ccc([N+](=O)[O-])cc3)ccc2c1 [Example 11, 6-amidino-1-carbamoylmethyl-2-naphthyl 4-nitrobenzoate.hydrochloride] | 1.12 |  | 
2 | CNC(=N)Nc1ccc(C(=O)Oc2ccc3cc(C(=N)N)ccc3c2CC(N)=O)cc1 [Example 26, 6-amidino-1-carbamoylmethyl-2-naphthyl 4-methylaminoiminomethylaminobenzoate.dihydrochloride] |  | 0.60 nmol/min/mL | 
3 | CN(C)CCNC(=N)Nc1ccc(C(=O)Oc2ccc3cc(C(=N)N)ccc3c2CC(N)=O)cc1 [Example 17, 6-amidino-1-carbamoylmethyl-2-naphthyl 4-[(2-dimethylaminoethyl)aminoiminomethylamino]benzoate.trihydrochloride] |  | 0.62 nmol/min/mL | 
4 | N=C(N)c1ccc2c(CC(N)=O)c(OC(=O)c3ccc(N)cc3)ccc2c1 [Example 12, 6-amidino-1-carbamoylmethyl-2-naphthyl 4-aminobenzoate.dihydrochloride] | 1.05 |  | 
5 | Cl.Cl.N=C(N)Nc1ccc(C(=O)Oc2ccc3cc(C(=N)N)ccc3c2C=CC(N)=O)cc1 [Example 46, 6-amidino-1-(2-carbamoylvinyl)-2-naphthyl 4-aminoiminomethylaminobenzoate.dihydrochloride] |  | 0.63 nmol/min/mL | 
6 | N=C(N)c1ccc2c(CC(N)=O)c(OC(=O)c3ccc(NC4=NCCS4)cc3)ccc2c1 [Example 31, 6-amidino-1-carbamoylmethyl-2-naphthyl 4-[(4,5-dihydrothiazol-2-yl)amino]-benzoate.dihydrochloride] | 1.00 |  | 
7 | N=C(NCCO)Nc1ccc(C(=O)Oc2ccc3cc(C(=N)N)ccc3c2CC(N)=O)cc1 [Example 7, 6-amidino-1-carbamoylmethyl-2-naphthyl 4-[(2-hydroxyethyl)aminoiminomethylamino]-benzoate.dihydrochloride] | 1.05 | 0.62 nmol/min/mL | 
8 | N=C(NCCN1CCCC1)Nc1ccc(C(=O)Oc2ccc3cc(C(=N)N)ccc3c2CC(N)=O)cc1 [Example 24] |  | 0.55 nmol/min/mL | 
9 | CN(C)c1ccc(C(=O)Oc2ccc3cc(C(=N)N)ccc3c2CC(N)=O)cc1 [Example 15, 6-amidino-1-carbamoylmethyl-2-naphthyl 4-dimethylaminobenzoate.dihydrochloride] | 1.05 |  | 
10 | CN(C)C(=O)COC(=O)c1c(OC(=O)c2ccc(NC3=NCCN3)cc2)ccc2cc(C(=N)N)ccc12 [Example 48, 6-amidino-1-dimethylcarbamoylmethoxycarbonyl-2-naphthyl 4-[(4,5-dihydro-1H-imidazol-2-yl)amino]benzoate.dihydrochloride] | 0.96 |  | 
11 | COC(=O)Cc1c(OC(=O)c2ccc(NC3=NCCN3)cc2)ccc2cc(C(=N)N)ccc12 [Example 39, 6-amidino-1-methoxycarbonylmethyl-2-naphthyl 4-[(4,5-dihydro-1H-imidazol-2-yl)amino]benzoate.dimethanesulfonate] | 1.19 | 0.58 nmol/min/mL | 
12 | CN=C(NC)Nc1ccc(C(=O)Oc2ccc3cc(C(=N)N)ccc3c2CC(N)=O)cc1 [Example 27, 6-amidino-1-carbamoylmethyl-2-naphthyl 4-methylaminomethyliminomethylaminobenzoate.dihydrochloride] |  | 0.52 nmol/min/mL | 
13 | N=C(N)c1ccc2c(CCC(N)=O)c(OC(=O)c3ccc(NC4=NCCN4)cc3)ccc2c1 [Example 5, 6-amidino-1-(2-carbamoylethyl)-2-naphthyl 4-[(4,5-dihydro-1H-imidazol-2-yl)amino]-benzoate.dihydrochloride] | 1.00 |  | 
14 | CC(=O)NCCN=CNCNc1ccc(C(=O)Oc2ccc3cc(C(=N)N)ccc3c2CC(N)=O)cc1.Cl.Cl [Example 3, 6-amidino-1-carbamoylmethyl-2-naphthyl 4-[(2-acetylaminoethyl)iminomethylaminomethylamino]benzoate.dihydrochloride] | 1.09 |  | 
15 | N=C(N)c1ccc2c(CC(N)=O)c(OC(=O)c3ccc(NC4=NCCN4)cc3)ccc2c1 [Example 1, 6-amidino-1-carbamoylmethyl-2-naphthyl 4-[(4,5-dihydro-1H-imidazol-2-yl)amino]-benzoate.dihydrochloride] | 1.16 | 0.37 nmol/min/mL | 28.5 ng/mL
